The numbers were not newly measured in patent US20220117942A1, “COMBINATION THERAPY FOR THE TREATMENT OF PROSTATE CANCER” (Zenith Epigenetics Ltd., priority 2018, published 2022), which cites them from elsewhere.

The subject of the series is 2nd line mCRPC patients. The settings on record: enzalutamide alone, comparison value.

SMILES strings stand for the structures.

`CNC(=O)c1ccc(N2C(=S)N(c3ccc(C#N)c(C(F)(F)F)c3)C(=O)C2(C)C)cc1F` [enzalutamide]: the “expected rPFS” value was 24-28 weeks.
